Measured values published in publication PMC5354670, “Blockade of the malignant phenotype by β-subunit selective noncovalent inhibition of immuno- and constitutive proteasomes” (Oncotarget, 2017).
Blank lines part the entries; values can stand above or below the molecule they belong to.

Assays:
[1] = molecular target: human 20S immunoproteasome iCP, PA activity (β1) (Homo sapiens, UniProt P28065); experiment: Inhibition of PA activity of human iCP (substrate Z-LLE-βNA); details: for inhibition at 50 µM: pH 8, read-out: % inhibition at 50 μM PA, iCP; for ratio cCP/iCP, PA activity: IC50 cCP / IC50 iCP
Description: (§7) They were assayed for in vitro inhibition of purified human cCP and iCP by measuring the hydrolysis of the β5 (ChT-L) substrate Suc-LLVY-AMC, β1 (PA) substrate Z-LLE-βNA, and β2 (T-L) substrate Boc-LRR-AMC in the presence of various concentrations of the tested molecules.
(§8) The experimental data are adjusted to equation 1 (c) or equation 2 (a, a’, b, b’, c’).
(§9) Purified human constitutive 20S proteasome cCP and human 20S immunoproteasome iCP from erythrocyte were obtained from Boston Biochem (Cambridge, USA). All fluorogenic substrates (Suc-LLVY-AMC, Boc-LRR-AMC, and Z-LLE-βNA) were obtained from Bachem (Weil am Rhein, Germany). […] Fluorescence was measured using a BMG Fluostar microplate reader (black 96-well microplates).
(§10) Substrates and compounds were previously dissolved in DMSO. The buffers were (pH 8.0): 20 mM Tris, 10% (v/v) glycerol, 0.01% (w/v) SDS, and 2% (v/v) DMSO (ChT-L and PA activities); 20 mM Tris, 10% (v/v) glycerol, 0.01% (w/v). The final iPR and cPR concentrations were 0.3 nM using 20 μM Suc-LLVY-AMC (ChT-L), 50 μM Boc-LRR-AMC (T-L) and 100 μM Z-LLE-βNA (PA). […] The enzyme and the inhibitors were incubated for 15 min before the measurement of the enzyme activity. Initial rates determined in control experiments (V0) were considered to be 100 % of the peptidase activity; initial rates (Vi) that were above 100 % in the presence of a tested compound were considered to be activations (expressed as activation factor), while initial rates below 100 % were considered to be inhibitions. […] The values of IC50 were calculated by fitting the experimental data to the equation 1 or equation 2, where nH is the Hill number.

[2] = molecular target: human 20S immunoproteasome iCP, ChT-L activity (β5) (Homo sapiens, UniProt P28062); experiment: Inhibition of ChT-L activity of human iCP (substrate Suc-LLVY-AMC); details: for inhibition at 50 µM: pH 8, read-out: % inhibition at 50 μM ChT-L, iCP; for ratio cCP/iCP, ChT-L activity: IC50 cCP / IC50 iCP
Description: as §7, §8, §9, §10

[3] = molecular target: human constitutive 20S proteasome cCP, PA activity (β1) (Homo sapiens, UniProt P28072); experiment: Inhibition of PA activity of human cCP (substrate Z-LLE-βNA); details: for inhibition at 50 µM: pH 8, read-out: % inhibition at 50 μM PA, cCP
Description: as §7, §8, §9, §10

[4] = molecular target: human constitutive 20S proteasome cCP, ChT-L activity (β5) (Homo sapiens, UniProt P28074); experiment: Inhibition of ChT-L activity of human cCP (substrate Suc-LLVY-AMC); details: for inhibition at 50 µM: pH 8, read-out: % inhibition at 50 μM ChT-L, cCP; for factor by which ChT-L activity of cCP is more efficiently inhibited than PA: PA vs ChT-L
Description: as §7, §8, §9, §10

[5] = molecular target: human constitutive 20S proteasome cCP, T-L activity (β2) (Homo sapiens, UniProt Q99436); experiment: Inhibition of T-L activity of human cCP (substrate Boc-LRR-AMC); details: for fold induction at 50 µM: pH 8, read-out: x (activation factor) at 50 μM T-L, cCP; for inhibition at 50 µM: pH 8, read-out: % inhibition at 50 μM T-L, cCP
Description: as §7, §8, §9, §10

[6] = molecular target: human 20S immunoproteasome iCP, T-L activity (β2) (Homo sapiens, UniProt P40306); experiment: Inhibition of T-L activity of human iCP (substrate Boc-LRR-AMC); details: for fold induction at 50 µM: pH 8, read-out: x (activation factor) at 50 μM T-L, iCP
Description: We decided to explore further their properties by testing their potential to inhibit human iCP versus cCP. They were assayed for in vitro inhibition of purified human cCP and iCP by measuring the hydrolysis of the β5 (ChT-L) substrate Suc-LLVY-AMC, β1 (PA) substrate Z-LLE-βNA, and β2 (T-L) substrate Boc-LRR-AMC in the presence of various concentrations of the tested molecules.
as §8
Purified human constitutive 20S proteasome cCP and human 20S immunoproteasome iCP from erythrocyte were obtained from Boston Biochem (Cambridge, USA). All fluorogenic substrates (Suc-LLVY-AMC, Boc-LRR-AMC, and Z-LLE-βNA) were obtained from Bachem (Weil am Rhein, Germany). Other reagents and solvents were purchased from commercial sources. Fluorescence was measured using a BMG Fluostar microplate reader (black 96-well microplates).
as §10

[7] = system: CT-26 cells (colon cancer); experiment: Cell invasion assay, microchemotaxis chamber pre-coated with collagen IV, CT-26; format: cell-based; details: 10 μM, 24 h
Description: (§1) We first analyzed the cytotoxic effects of B1f and B3 treatment on colon (CT-26) and breast cancer cells (MDA-MB-231 cells) using the MTT cell viability assay. B1f and B3 inhibited the viability of these cells in a dose-dependent manner after 48 h treatment. Higher doses of B1f and B3 lead to 100% cytotoxicity (Figure 4A). […] We next assessed the effect of B1f and B3 on the proliferation of these cells during 24h. […] Similarly, to evaluate whether these inhibitors can affect their invasion, tumor cells were incubated for 24 h in a microchemotaxis chamber pre-coated with collagen IV (Figure 4C) in the presence of the compounds B1f or B3.
(§2) Figure 4 Effect of compounds B1f and B3 on tumor cell proliferation and invasion A. CT-26 and MDA-MB 231 cells were treated with various concentrations of indicated compounds for 48h and cells viability was measured by MTT assay. […] Cell proliferation was assessed using Cell Titer96 non-radioactive cell proliferation assay. […]
(§3) Cell invasion were determined using 24-well microchemotaxis chambers precoated with 7.5 μg collagen type IV (Becton Dickinson Labware), as previously described. […] Cell invasion were quantified by determination of the number of cells that migrated directly through the membrane toward the medium containing 10% serum that was used as a chemoattractant. […]

[8] = system: MDA-MB-231 cells (breast cancer); experiment: Cell Titer96 non-radioactive cell proliferation assay, MDA-MB-231; format: cell-based; details: 10 μM, 24 h, vs control cells
Description: as §1, §2
(§4) For the viability assay, CT-26 (colon cancer) and MDA-MB231 (breast cancer) cells were plated in triplicate on 96 wells plate (5.10^3/well). After treatment with indicated drugs, cells were incubated for 48 hours at 37°C and incubated with solution of 5 mg/ml of 3-(4,5-dimethylthiazol-2-yl)-2,5-diphenyltetrazolium bromide (MTT) tetrazolium substrate (Sigma) for 30 minutes at 37°C prior analysis on a microplate reader at 570. […]

[9] = system: CT-26 cells (colon cancer); experiment: Cell Titer96 non-radioactive cell proliferation assay, CT-26; format: cell-based; details: 10 μM, 24 h, vs control cells
Description: as §1, §2, §4

[10] = system: CT-26 cells (colon cancer); experiment: MTT cell viability assay, CT-26; format: cell-based; details: for cytotoxicity at higher doses: CT-26 cells, 48 h; for CC50: Mus musculus, CT26 cells, 48 h treatment, MTT, read-out: LC50 (the source's name)
Description: as §1
(§5) Figure 4 Effect of compounds B1f and B3 on tumor cell proliferation and invasion A. CT-26 and MDA-MB 231 cells were treated with various concentrations of indicated compounds for 48h and cells viability was measured by MTT assay. B. Tumor cells were serum deprived overnight and then treated for 24 h with control media (None) or media containing compound B3 or B1f. Cell proliferation was assessed using Cell Titer96 non-radioactive cell proliferation assay. Results are shown as means ± S.E. of three experiments performed in triplicate. *P < 0.05. **P < 0.001. *** P < 0.0001. C. Indicated tumor cells were incubated in a microchemotaxis chamber pre-coated with collagen IV for cell invasion assay as described in the Materials and Methods section. The results are represented as the percentage of invading cells. Data are representative of 3 experiments and shown as mean ± S.E. (n=3 per group). **P < 0.001. *** P < 0.0001.
(§6) For the viability assay, CT-26 (colon cancer) and MDA-MB231 (breast cancer) cells were plated in triplicate on 96 wells plate (5.10^3/well). After treatment with indicated drugs, cells were incubated for 48 hours at 37°C and incubated with solution of 5 mg/ml of 3-(4,5-dimethylthiazol-2-yl)-2,5-diphenyltetrazolium bromide (MTT) tetrazolium substrate (Sigma) for 30 minutes at 37°C prior analysis on a microplate reader at 570. The LC50 value was defined as the drug concentration causing 50% cell death (LD = lethal dose) compared to growth of the untreated control cells. For cell proliferation, cells were plated in triplicate on 96 wells plate (5.10^3/well) under serum free conditions for 24 h. The starved cells were then incubated for 24h with fresh media containing the two selected compounds B1f and B3 that inhibit both ChT-L and PA activities of iCP and cCP. […] Proliferation level in cells was evaluated, as reported previously using the Cell Titer96 non-radioactive cell proliferation assay kit (Promega) according to manufacturer’s protocol

[11] = system: MDA-MB-231 cells (breast cancer); experiment: Cell invasion assay, microchemotaxis chamber pre-coated with collagen IV, MDA-MB-231; format: cell-based; details: 10 μM, 24 h
Description: as §1, §2, §3

[12] = system: MDA-MB-231 cells (breast cancer); experiment: MTT cell viability assay, MDA-MB-231; format: cell-based; details: for cytotoxicity at higher doses: 48 h; for CC50: Homo sapiens, 48 h treatment, MTT, read-out: LC50 (the source's name)
Description: as §1, §5, §6

- inhibition at 50 µM [1]: 25%
- inhibition at 50 µM [2]: < 25%
- inhibition at 50 µM [3]: < 25%
- inhibition at 50 µM [4]: < 25%
- IC50 [5]: 10.3 µM
- cCP/iCP ratio for the IC50 values, T-L activity [6]: 1.4
Structure (SMILES): CC(C)Cc1ccc(S(=O)(=O)N2CCN(c3ccc([N+](=O)[O-])cc3)CC2)cc1 [Compound B1a]

- inhibition at 50 µM [1]: < 25%
- inhibition at 50 µM [2]: < 25%
- inhibition at 50 µM [3]: < 25%
- inhibition at 50 µM [4]: < 25%
- IC50 [5]: 12 µM
- IC50 [6]: 2.6 ± 0.4 µM
- cCP/iCP ratio for the IC50 values, T-L activity [6]: 4.6
Structure (SMILES): Cc1ccccc1N1CCN(S(=O)(=O)c2ccc(C(C)(C)C)cc2)CC1 [Compound B1b]

- inhibition at 50 µM [1]: < 25%
- inhibition at 50 µM [2]: < 25%
- inhibition at 50 µM [3]: < 25%
- inhibition at 50 µM [4]: < 25%
- IC50 [5]: 8.1 µM
- IC50 [6]: 3.3 ± 0.4 µM
- cCP/iCP ratio for the IC50 values, T-L activity [6]: 2.4
Structure (SMILES): CC(C)(C)c1ccc(S(=O)(=O)N2CCN(c3ccc(Cl)cc3[N+](=O)[O-])CC2)cc1 [Compound B1c]

- inhibition at 50 µM [3]: 46%
- inhibition at 50 µM [4]: < 25%
- fold induction at 50 µM [5]: 4.7
Structure (SMILES): O=[N+]([O-])c1ccc(N2CCN(S(=O)(=O)c3ccc(Cl)cc3)CC2)cc1Sc1ccccn1 [Compound B1d]

- IC50 [1]: 3.3 ± 0.3 µM
- ratio cCP/iCP, PA activity [1]: 1.3
- IC50 [2]: 5.5 ± 0.3 µM
- ratio cCP/iCP, ChT-L activity [2]: 0.55
- IC50 [3]: 4.2 µM
- IC50 [4]: 2.5 µM
- factor by which ChT-L activity of cCP is more efficiently inhibited than PA [4]: 1.7
- inhibition at 50 µM [5]: < 25%
- fold induction at 50 µM [6]: 3
Structure (SMILES): Cc1ccc(S(=O)(=O)N2CCN(c3ccc([N+](=O)[O-])c(SCc4ccco4)c3)CC2)cc1 [Compound B1e]

Structure (SMILES): O=[N+]([O-])c1ccc(N2CCN(S(=O)(=O)c3ccc(Cl)cc3)CC2)cc1SCc1ccco1 [Compound B1f]
- effect on invasion [7]: clearly decreased their ability to invade
- effect on proliferation [8]: significant reduction in their proliferation
- IC50 [1]: 3.7 ± 0.2 µM
- ratio cCP/iCP, PA activity [1]: 2
- effect on proliferation [9]: significant reduction in their proliferation
- cytotoxicity at higher doses [10]: 100%
- CC50 [10]: 24.4 ± 8.6 µM
- IC50 [2]: 5.8 ± 0.2 µM
- ratio cCP/iCP, ChT-L activity [2]: 0.45
- effect on invasion [11]: clearly decreased their ability to invade
- IC50 [3]: 7.4 µM
- IC50 [4]: 3.2 µM
- factor by which ChT-L activity of cCP is more efficiently inhibited than PA [4]: 2.3
- inhibition at 50 µM [5]: < 25%
- fold induction at 50 µM [6]: 3
- cytotoxicity at higher doses [12]: 100%
- CC50 [12]: 45.8 ± 5.2 µM

- IC50 [3]: 13.9 ± 1.4 µM
- IC50 [4]: 24.6 ± 3.5 µM
- inhibition at 50 µM [5]: < 25%
Structure (SMILES): CC(C)(C)c1ccc(S(=O)(=O)N2CCN(c3ccc([N+](=O)[O-])c(NCc4ccccn4)c3)CC2)cc1 [Compound B1g]

- inhibition at 50 µM [3]: 45%
- inhibition at 50 µM [5]: < 25%
Structure (SMILES): CC(=O)Nc1ccc(S(=O)(=O)N2CCN(c3ccc([N+](=O)[O-])c(NCCN4CCOCC4)c3)CC2)cc1 [Compound B1h]

- inhibition at 50 µM [3]: < 25%
- inhibition at 50 µM [4]: < 25%
- inhibition at 50 µM [5]: < 25%
Structure (SMILES): COc1ccc(S(=O)(=O)N2CCN(c3ccc([N+](=O)[O-])c(NCC(C)(C)C)c3)CC2)cc1OC [Compound B1i]

- IC50 [3]: 31.2 ± 1 µM
- inhibition at 50 µM [5]: < 25%
Structure (SMILES): O=[N+]([O-])c1ccc(N2CCN(S(=O)(=O)c3ccc4ccccc4c3)CC2)cc1SCCN1CCOCC1 [Compound B2a]

- inhibition at 50 µM [3]: 50%
- inhibition at 50 µM [4]: 58.9%
- fold induction at 50 µM [5]: 4.5
Structure (SMILES): O=[N+]([O-])c1ccc(N2CCN(S(=O)(=O)c3ccc4ccccc4c3)CC2)cc1 [Compound B2b]

Structure (SMILES): O=C(COc1ccc2ccccc2c1)N1CCN(S(=O)(=O)c2ccc([N+](=O)[O-])cc2)CC1 [Compound B3]
- effect on invasion [7]: clearly decreased their ability to invade
- effect on proliferation [8]: significant reduction in their proliferation
- IC50 [1]: 7.1 ± 0.2 µM
- effect on proliferation [9]: significant reduction in their proliferation
- cytotoxicity at higher doses [10]: 100%
- CC50 [10]: 26.4 ± 1.7 µM
- IC50 [2]: 6.7 ± 0.2 µM
- effect on invasion [11]: clearly decreased their ability to invade
- IC50 [3]: 8.1 µM
- IC50 [4]: 6.5 µM
- inhibition at 50 µM [5]: < 25%
- inhibition at 50 µM ([6]; pH 8, read-out: % inhibition at 50 μM T-L, iCP): < 25%
- cytotoxicity at higher doses [12]: 100%
- CC50 [12]: 15.4 ± 4.7 µM

- inhibition at 50 µM [3]: < 25%
- inhibition at 50 µM [4]: < 25%
- inhibition at 50 µM [5]: < 25%
Structure (SMILES): O=[N+]([O-])c1ccc(N2CCN(S(=O)(=O)Cc3ccccc3)CC2)cc1NCCN1CCOCC1 [Compound B4]
